Data taken from ChEMBL document CHEMBL4014265, “Crassins A-H, Diterpenoids from the Roots of Croton crassifolius” (J Nat Prod, 2017).
pIC50: −log10 of the molar value.

Key:
A549 [1] = test: Cytotoxicity against human A549 cells assessed as growth inhibition at 20 uM after 72 hrs by SRB assay relative to control; assay type: functional; settings: A549, 72 h, read-out: GI
HL-60 [2] = test: Cytotoxicity against human HL60 cells assessed as growth inhibition after 72 hrs by MTT assay; assay type: functional, cell-based; settings: HL-60, 72 h
A549 [3] = test: Cytotoxicity against human A549 cells assessed as growth inhibition after 72 hrs by SRB assay; assay type: functional, cell-based; settings: A549, 72 h
HL-60 [4] = test: Cytotoxicity against human HL60 cells assessed as growth inhibition at 20 uM after 72 hrs by MTT assay relative to control; assay type: functional; settings: HL-60, 72 h, read-out: GI

Compound: COC(=O)[C@]1(C)CCCC2=C1CC[C@@H](C)[C@]2(C)CCC1=CC(=O)O[C@H]1O
- inhibition of growth at 20 µM (A549 [1]): > 50%
- pIC50 (HL-60 [2]): 4.93
- pIC50 (A549 [3]): 5.28
- inhibition of growth at 20 µM (HL-60 [4]): > 50%

Compound: COC(=O)[C@@]1(C)CC(=O)C2=C(c3ccoc3)C[C@]3(C)C2=C1CC[C@H]3C
- inhibition of growth at 20 µM (A549 [1]): > 50%
- pIC50 (HL-60 [2]): 4.98
- pIC50 (A549 [3]): 5.08
- inhibition of growth at 20 µM (HL-60 [4]): > 50%
